From patent US11541028B2, “Peptide pharmaceuticals for treatment of NASH and other disorders” (Mederis Diabetes LLC, priority 2018, dated 2023)
Bridge positions count the residues as written; N and C are the ends. Square brackets hold non-standard residues; d marks the D form. Peptide text beside a SMILES is read from it. * marks the point of attachment. βGlcA(1-O-hexadecyl) = CCCCCCCCCCCCCCCCO[C@@H]1O[C@H](C(=O)*)[C@@H](O)[C@H](O)[C@H]1O; Aib = CC(C)(N)C(=O)O

What was measured:
db/db mice = assay: Glucose-lowering activity in db/db mice; type: in vivo
Description: The 60 female db/db B6BKS (D) Leprdb/J (strain 000697) mice for this study were about 8-9 weeks old at arrival (Jackson Laboratory, Bar Harbor, Me.). […] One group of 8 female mice served as the vehicle control and received the vehicle, 0.2% BSA in saline, pH 7.4. One additional group of 8 female mice received the positive-control compound, liraglutide, at a dose level of 50 nmoles/kg. The test compounds, vehicle and positive-control compound were subcutaneously injected at a dose volume of 6 mL/kg on day 1 at about 0, 7 and 24 hours.
Clinical observations were conducted at receipt, prior to randomization, and daily from days 1 to 5. Body weights were measured and recorded at receipt, prior to randomization, and daily from days 1 to 5. Food consumption was measured and recorded daily from days 1 to 5. Blood samples for glucose analysis were collected pre-study (day −3) and at 0, 1, 2, 4, 8, 10, 24, 48, 72 and 96 hours following the first dose on day 1. At study termination all animals were euthanized, and the carcasses were discarded without further evaluation.

human GLP-1 receptor = biological target: T1, human GLP-1 receptor (Homo sapiens, UniProt P43220); assay: DiscoveRx LeadHunter cellular assay, cAMP stimulation, GLP-1 receptor in CHO cells; type: cell-based; settings: human GLP-1 receptor in CHO cells (DiscoveRx); read-out: EC50 cAMP GLP-1 R
T1 construct: host or cells: CHO cells
Description: (§1) A further series of cellular assays was carried out with standard cellular assays (DiscoveRx, LeadHunter assays) using readout of cAMP stimulation or arrestin activation. Compounds were weighed precisely in an amount of about 1 mg and shipped to DiscoveRx for dilution and assay.

human glucagon receptor = biological target: T2, human glucagon receptor (Homo sapiens, UniProt P47871); assay: DiscoveRx LeadHunter cellular assay, cAMP stimulation, glucagon receptor in CHO cells; type: cell-based
T2 construct: host or cells: CHO cells
T2 sequence (P47871 26-477): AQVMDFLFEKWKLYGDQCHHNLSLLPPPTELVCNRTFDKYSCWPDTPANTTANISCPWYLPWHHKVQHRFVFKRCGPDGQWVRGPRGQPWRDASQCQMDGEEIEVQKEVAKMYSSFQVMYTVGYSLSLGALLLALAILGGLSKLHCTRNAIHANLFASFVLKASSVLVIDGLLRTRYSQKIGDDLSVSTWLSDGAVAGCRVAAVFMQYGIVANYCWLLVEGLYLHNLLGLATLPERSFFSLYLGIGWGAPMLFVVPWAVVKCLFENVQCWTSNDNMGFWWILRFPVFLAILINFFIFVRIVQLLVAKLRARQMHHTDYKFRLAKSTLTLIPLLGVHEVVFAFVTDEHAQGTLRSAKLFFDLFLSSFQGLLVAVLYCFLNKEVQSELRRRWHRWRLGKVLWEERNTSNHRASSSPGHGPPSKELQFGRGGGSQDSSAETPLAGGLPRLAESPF
Description: as §1

T1 sequence (P43220 24-463): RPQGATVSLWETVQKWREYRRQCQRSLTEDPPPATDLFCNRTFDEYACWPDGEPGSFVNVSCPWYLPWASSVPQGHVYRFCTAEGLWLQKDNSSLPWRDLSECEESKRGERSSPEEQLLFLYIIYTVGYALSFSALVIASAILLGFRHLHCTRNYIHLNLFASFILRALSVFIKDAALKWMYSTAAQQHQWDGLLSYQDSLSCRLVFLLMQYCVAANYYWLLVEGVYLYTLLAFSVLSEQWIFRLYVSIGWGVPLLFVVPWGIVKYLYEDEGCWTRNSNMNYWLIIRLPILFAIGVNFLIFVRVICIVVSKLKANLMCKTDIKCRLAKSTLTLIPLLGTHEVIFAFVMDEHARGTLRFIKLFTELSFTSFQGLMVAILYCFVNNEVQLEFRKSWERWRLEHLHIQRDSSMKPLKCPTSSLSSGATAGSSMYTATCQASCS

Structure (SMILES): CCCCCCCCCCO[C@@H]1O[C@H](C(=O)NCCCC[C@H](NC(=O)[C@@H](NC(=O)[C@H](Cc2ccccc2)NC(=O)[C@H](CCC(=O)O)NC(=O)[C@@H]2CCCCNC(=O)CC[C@H](NC(=O)[C@H](CC(=O)O)NC(=O)[C@H](CC(C)C)NC(=O)[C@H](Cc3ccc(O)cc3)NC(=O)[C@H](CCCCN)NC(=O)[C@H](CO)NC(=O)[C@H](Cc3ccc(O)cc3)NC(=O)[C@H](CC(=O)O)NC(=O)[C@H](CO)NC(=O)[C@@H](NC(=O)[C@H](Cc3ccccc3)NC(=O)[C@@H](NC(=O)CNC(=O)[C@H](CCC(N)=O)NC(=O)C(C)(C)NC(=O)[C@@H](N)Cc3c[nH]cn3)[C@@H](C)O)[C@@H](C)O)C(=O)N[C@@H](CCC(N)=O)C(=O)N[C@@H](C)C(=O)N[C@@H](C)C(=O)N2)[C@@H](C)CC)C(=O)N[C@@H](Cc2c[nH]c3ccccc23)C(=O)N[C@@H](CC(C)C)C(=O)N[C@@H](CC(C)C)C(=O)N[C@@H](CCC(N)=O)C(=O)N[C@H](C(N)=O)[C@@H](C)O)[C@@H](O)[C@H](O)[C@H]1O [EU-A1167]
- time for which elevated blood glucose level was reduced to the normal range (db/db mice; db/db mice, 250 nmol/kg subcutaneously at t=0 and 7 hr (FIG. 9)): around 72 hr
- db/db Mice-Mean Blood Glucose (mg/dL) 0 hr (db/db mice; dose 250 nmole/kg sc): 379 mg/dL
- db/db Mice-Mean Blood Glucose (mg/dL) 10 hr (db/db mice; dose 250 nmole/kg sc): 171 mg/dL
- db/db Mice-Mean Blood Glucose (mg/dL) 24 hr (db/db mice; dose 250 nmole/kg sc): 117 mg/dL
- db/db Mice-Mean Blood Glucose (mg/dL) 48 hr (db/db mice; dose 250 nmole/kg sc): 113 mg/dL

Structure (SMILES): CCCCCCCCCCCCO[C@@H]1O[C@H](CO[C@H]2O[C@H](C(=O)NCCCC[C@H](NC(=O)[C@@H](NC(=O)[C@H](Cc3ccccc3)NC(=O)[C@H](CCC(=O)O)NC(=O)[C@@H]3CCCCNC(=O)CC[C@H](NC(=O)[C@H](CC(=O)O)NC(=O)[C@H](CC(C)C)NC(=O)[C@H](Cc4ccc(O)cc4)NC(=O)[C@H](CCCCN)NC(=O)[C@H](CO)NC(=O)[C@H](Cc4ccc(O)cc4)NC(=O)[C@H](CC(=O)O)NC(=O)[C@H](CO)NC(=O)[C@@H](NC(=O)[C@H](Cc4ccccc4)NC(=O)[C@@H](NC(=O)CNC(=O)[C@H](CCC(N)=O)NC(=O)C(C)(C)NC(=O)[C@@H](N)Cc4c[nH]cn4)[C@@H](C)O)[C@@H](C)O)C(=O)N[C@@H](CCC(N)=O)C(=O)N[C@@H](C)C(=O)N[C@@H](C)C(=O)N3)[C@@H](C)CC)C(=O)N[C@@H](Cc3c[nH]c4ccccc34)C(=O)N[C@@H](CC(C)C)C(=O)N[C@@H](CC(C)C)C(=O)N[C@@H](CCC(N)=O)C(=O)N[C@H](C(N)=O)[C@@H](C)O)[C@H](O)[C@H](O)[C@H]2O)[C@@H](O)[C@H](O)[C@H]1O [EU-A1023]
- db/db Mice-Mean Blood Glucose (mg/dL) 0 hr (db/db mice; dose 50 nmole/kg sc): 507 mg/dL
- db/db Mice-Mean Blood Glucose (mg/dL) 10 hr (db/db mice; dose 50 nmole/kg sc): 310 mg/dL
- db/db Mice-Mean Blood Glucose (mg/dL) 24 hr (db/db mice; dose 50 nmole/kg sc): 355 mg/dL
- db/db Mice-Mean Blood Glucose (mg/dL) 48 hr (db/db mice; dose 50 nmole/kg sc): 375 mg/dL
- db/db Mice-Mean Blood Glucose (mg/dL) 0 hr (db/db mice; dose 250 nmole/kg sc): 508 mg/dL
- db/db Mice-Mean Blood Glucose (mg/dL) 10 hr (db/db mice; dose 250 nmole/kg sc): 264 mg/dL
- db/db Mice-Mean Blood Glucose (mg/dL) 24 hr (db/db mice; dose 250 nmole/kg sc): 194 mg/dL
- db/db Mice-Mean Blood Glucose (mg/dL) 48 hr (db/db mice; dose 250 nmole/kg sc): 375 mg/dL

Structure (SMILES): CCCCCCCCCCCCO[C@@H]1O[C@H](C(=O)N[C@@H](CCC(=O)N[C@@H](CCC(=O)NCCCC[C@H](NC(=O)[C@@H](NC(=O)[C@H](Cc2ccccc2)NC(=O)[C@H](CCC(=O)O)NC(=O)[C@@H]2CCCCNC(=O)CC[C@H](NC(=O)[C@H](CC(=O)O)NC(=O)[C@H](CC(C)C)NC(=O)[C@H](Cc3ccc(O)cc3)NC(=O)[C@H](CCCCN)NC(=O)[C@H](CO)NC(=O)[C@H](Cc3ccc(O)cc3)NC(=O)[C@H](CC(=O)O)NC(=O)[C@H](CO)NC(=O)[C@@H](NC(=O)[C@H](Cc3ccccc3)NC(=O)[C@@H](NC(=O)CNC(=O)[C@H](CCC(N)=O)NC(=O)C(C)(C)NC(=O)[C@@H](N)Cc3c[nH]cn3)[C@@H](C)O)[C@@H](C)O)C(=O)N[C@@H](CCC(N)=O)C(=O)N[C@@H](C)C(=O)N[C@@H](C)C(=O)N2)[C@@H](C)CC)C(=O)N[C@@H](Cc2c[nH]c3ccccc23)C(=O)N[C@@H](CC(C)C)C(=O)N[C@@H](CC(C)C)C(=O)N[C@@H](CCC(N)=O)C(=O)N[C@H](C(N)=O)[C@@H](C)O)C(=O)O)C(=O)O)[C@@H](O)[C@H](O)[C@H]1O [EU-A1723]
- EC50 (human GLP-1 receptor): 0.028 nM
- EC50 (human glucagon receptor): 0.062 nM

Structure (SMILES): CCCCCCCCCCCCO[C@@H]1O[C@H](CO[C@H]2O[C@H](C(=O)NCCCC[C@@H]3NC(=O)[C@@H](NC(=O)[C@H](CC(=O)O)NC(=O)[C@H](CC(C)C)NC(=O)[C@H](Cc4ccc(O)cc4)NC(=O)[C@H](CCCCN)NC(=O)[C@H](CO)NC(=O)[C@H](Cc4ccc(O)cc4)NC(=O)[C@H](CC(=O)O)NC(=O)[C@H](CO)NC(=O)[C@@H](NC(=O)[C@H](Cc4ccccc4)NC(=O)[C@@H](NC(=O)CNC(=O)[C@H](CCC(N)=O)NC(=O)C(C)(C)NC(=O)[C@@H](N)Cc4c[nH]cn4)[C@@H](C)O)[C@@H](C)O)CCC(=O)NCCCC[C@@H](C(=O)N[C@@H](CCC(=O)O)C(=O)N[C@@H](Cc4ccccc4)C(=O)N[C@H](C(=O)N[C@@H](CCC(N)=O)C(=O)N[C@@H](Cc4c[nH]c5ccccc45)C(=O)N[C@@H](CC(C)C)C(=O)N[C@@H](CC(C)C)C(=O)N[C@@H](CCC(N)=O)C(=O)N[C@H](C(N)=O)[C@@H](C)O)[C@@H](C)CC)NC(=O)[C@H](C)NC(=O)[C@H](C)NC3=O)[C@H](O)[C@H](O)[C@H]2O)[C@@H](O)[C@H](O)[C@H]1O [EU-A1586]
- EC50 (human GLP-1 receptor): 0.029 nM
- EC50 (human glucagon receptor): 0.107 nM

Structure (SMILES): CCCCCCCCCCO[C@@H]1O[C@H](C(=O)NCCCC[C@H](N)C(=O)NCCCC[C@H](NC(=O)[C@@H](NC(=O)[C@H](Cc2ccccc2)NC(=O)[C@H](CCC(=O)O)NC(=O)[C@@H]2CCCCNC(=O)CC[C@H](NC(=O)[C@H](CC(=O)O)NC(=O)[C@H](CC(C)C)NC(=O)[C@H](Cc3ccc(O)cc3)NC(=O)[C@H](CCCCN)NC(=O)[C@H](CO)NC(=O)[C@H](Cc3ccc(O)cc3)NC(=O)[C@H](CC(=O)O)NC(=O)[C@H](CO)NC(=O)[C@@H](NC(=O)[C@H](Cc3ccccc3)NC(=O)[C@@H](NC(=O)CNC(=O)[C@H](CCC(N)=O)NC(=O)C(C)(C)NC(=O)[C@@H](N)Cc3c[nH]cn3)[C@@H](C)O)[C@@H](C)O)C(=O)N[C@@H](CCC(N)=O)C(=O)N[C@@H](C)C(=O)N[C@@H](C)C(=O)N2)[C@@H](C)CC)C(=O)N[C@@H](Cc2c[nH]c3ccccc23)C(=O)N[C@@H](CC(C)C)C(=O)N[C@@H](CC(C)C)C(=O)N[C@@H](CCC(N)=O)C(=O)N[C@H](C(N)=O)[C@@H](C)O)[C@@H](O)[C@H](O)[C@H]1O [EU-A1710]
- EC50 (human GLP-1 receptor): 0.026 nM
- EC50 (human glucagon receptor): 0.065 nM

Structure (SMILES): CCCCCCCCCCCCCCO[C@@H]1O[C@H](C(=O)NCCCC[C@H](NC(=O)[C@@H](NC(=O)[C@H](Cc2ccccc2)NC(=O)[C@H](CCC(=O)O)NC(=O)[C@@H]2CCCCNC(=O)CC[C@H](NC(=O)[C@H](CC(=O)O)NC(=O)[C@H](CC(C)C)NC(=O)[C@H](Cc3ccc(O)cc3)NC(=O)[C@H](CCCCN)NC(=O)[C@H](CO)NC(=O)[C@H](Cc3ccc(O)cc3)NC(=O)[C@H](CC(=O)O)NC(=O)[C@H](CO)NC(=O)[C@@H](NC(=O)[C@H](Cc3ccccc3)NC(=O)[C@@H](NC(=O)CNC(=O)[C@H](CCC(N)=O)NC(=O)C(C)(C)NC(=O)[C@@H](N)Cc3c[nH]cn3)[C@@H](C)O)[C@@H](C)O)C(=O)N[C@@H](CCC(N)=O)C(=O)N[C@@H](C)C(=O)N[C@@H](C)C(=O)N2)[C@@H](C)CC)C(=O)N[C@@H](Cc2c[nH]c3ccccc23)C(=O)N[C@@H](CC(C)C)C(=O)N[C@@H](CC(C)C)C(=O)N[C@@H](CCC(N)=O)C(=O)N[C@H](C(=O)NCCOCCOCCOCCOCCOCCOCCOCCOCCC(=O)O)[C@@H](C)O)[C@@H](O)[C@H](O)[C@H]1O [EU-A1646]
- EC50 (human GLP-1 receptor): 0.029 nM
- EC50 (human glucagon receptor): 0.332 nM

Structure (SMILES): CCCCCCCCCCCCCCCCO[C@@H]1O[C@H](C(=O)NCCCC[C@H](NC(=O)[C@H](C)NC(=O)[C@H](C)NC(=O)[C@H](CCC(N)=O)NC(=O)[C@H](CO)NC(=O)[C@H](CC(=O)O)NC(=O)[C@@H]2CCCCNC(=O)CC[C@H](NC(=O)[C@H](CC(=O)O)NC(=O)[C@H](CO)NC(=O)[C@@H](NC(=O)[C@H](Cc3ccccc3)NC(=O)[C@@H](NC(=O)CNC(=O)[C@H](CCC(N)=O)NC(=O)C(C)(C)NC(=O)[C@@H](N)Cc3c[nH]cn3)[C@@H](C)O)[C@@H](C)O)C(=O)N[C@@H](CO)C(=O)N[C@@H](CCCCN)C(=O)N[C@@H](Cc3ccc(O)cc3)C(=O)N2)C(=O)N[C@@H](CCC(=O)O)C(=O)N[C@@H](Cc2ccccc2)C(=O)N[C@H](C(=O)N[C@@H](CCC(N)=O)C(=O)N[C@@H](Cc2c[nH]c3ccccc23)C(=O)N[C@@H](CC(C)C)C(=O)N[C@@H](CC(C)C)C(=O)N[C@@H](CCC(N)=O)C(=O)N[C@H](C(N)=O)[C@@H](C)O)[C@@H](C)CC)[C@@H](O)[C@H](O)[C@H]1O [EU-A1735] (H-H[Aib]QGTFTSDESKYKDSQAAK(βGlcA(1-O-hexadecyl))EFIQWLLQT-NH2; lactam 10-14; N-terminus assumed)
- EC50 (human GLP-1 receptor): 0.008 nM
- EC50 (human glucagon receptor): 0.931 nM
